According to patent publication US11905259B1, “2-(benzo[d]oxazol-2-yl)-N′-(4-(dimethylamino)benzoyloxy)acetimidamide as an antimicrobial compound” (KING FAISAL UNIVERSITY, priority 2023, dated 2024):

Key:
Bacillus cereus = assay: agar plate disc-diffusion, antibacterial activity; format: cell-based
Experimental: (§1) The agar plate disc-diffusion method was applied. […] The discs were then placed onto the surface of agar plates (nutrient agar for bacteria and Sabouraud's dextrose agar for fungi) seeded with the test organism. Each plate contained 15 mL of the agar medium, previously seeded with 0.2 mL of the broth culture of each organism pregrown for 18 hours. The plates were incubated at 37° C. for 48 hours, and 72 hours for fungi. The inhibition zones was measured in mm. Discs impregnated with DMSO were used as a control, and its inhibition zone was subtracted from the tested compound actual inhibition zone.

Escherichia coli = assay: agar plate disc-diffusion, antibacterial activity; format: cell-based
Experimental: as §1

Pseudomonas aeruginosa = assay: agar plate disc-diffusion, antibacterial activity; format: cell-based
Experimental: as §1

Staphylococcus aureus = assay: agar plate disc-diffusion, antibacterial activity; format: cell-based
Experimental: as §1

Aspergillus flavus = assay: agar plate disc-diffusion, antifungal activity; format: cell-based
Experimental: (§2) The agar plate disc-diffusion method was applied. Sterilized filter papers (6 mm in diameter) were wetted with 10 μL of a solution of 2-(benzo[d]oxazol-2-yl)-N′-(4-(dimethylamino)benzoyloxy)acetimidamide (3) to be tested, containing 10 mg/mL in DMSO, and the discs were allowed to air dry. The discs were then placed onto the surface of agar plates (nutrient agar for bacteria and Sabouraud's dextrose agar for fungi) seeded with the test organism. Each plate contained 15 mL of the agar medium, previously seeded with 0.2 mL of the broth culture of each organism pregrown for 18 hours. The plates were incubated at 37° C. for 48 hours, and 72 hours for fungi. The inhibition zones was measured in mm. Discs impregnated with DMSO were used as a control, and its inhibition zone was subtracted from the tested compound actual inhibition zone.

[1] = test system: Chrysosporium keratinophilum; assay: agar plate disc-diffusion, antifungal activity; format: cell-based
Experimental: as §1

different microbes = assay: antimicrobial screening, overall statement; format: cell-based; conditions: against different microbes (bacteria and fungi screened)
Experimental: as §2

[2] = A = concentration of comp. = 10,000 uL
[3] = B = concentration of comp. = 30,000 uL
[4] = C = concentration of comp. = 50,000 uL

| SMILES | inhibition zone (Bacillus cereus; [2]) [mm] | inhibition zone (Bacillus cereus; [3]) [mm] | inhibition zone (Bacillus cereus; [4]) [mm] | inhibition zone (Escherichia coli; [2]) [mm] | inhibition zone (Escherichia coli; [3]) [mm] | inhibition zone (Escherichia coli; [4]) [mm] | inhibition zone (Pseudomonas aeruginosa; [2]) [mm] | inhibition zone (Pseudomonas aeruginosa; [3]) [mm] | inhibition zone (Pseudomonas aeruginosa; C =) [mm] | inhibition zone (Staphylococcus aureus; [2]) [mm] | inhibition zone (Staphylococcus aureus; [3]) [mm] | inhibition zone (Staphylococcus aureus; C = concentration of comp.) [mm] | inhibition zone (Aspergillus flavus; [2]) [mm] | inhibition zone (Aspergillus flavus; [3]) [mm] | inhibition zone (Aspergillus flavus; [4]) [mm] | inhibition zone [1, 2] [mm] | inhibition zone [1, 3] [mm] | inhibition zone [1, 4] [mm] | antimicrobial activities (different microbes) | melting point [°C] |
| --- | --- | --- | --- | --- | --- | --- | --- | --- | --- | --- | --- | --- | --- | --- | --- | --- | --- | --- | --- | --- |
| CN(C)c1ccc(C(=O)O/N=C(\N)Cc2nc3ccccc3o2)cc1 [Compound 3, 2-(benzo[d]oxazol-2-yl)-N′-(4-(dimethylamino)benzoyloxy)acetimidamide] | 26 | 28 | 41 | 27 | 34 | 49 | 25 | 28 | 39 | 17 | 22 | 34 | 21 | 25 | 37 | 25 | 29 | 46 | excellent | 165 to 166 |
| O=C(O)c1cn(C2CC2)c2cc(N3CCNCC3)c(F)cc2c1=O [Cip., ciprofloxacin, reference compound] | 29 | 31 | 42 | 30 | 39 | 60 | 29 | 30 | 53 | 43 | 44 | 53 | 28 | 31 | 43 | 30 | 33 | 55 | – | – |
